For `CCCCCC(=O)NS(=O)(=O)c1ccccc1NC(=O)c1ccc(C#Cc2cccc(C(F)(F)F)c2)cc1` [Example 1, 4-(3-Trifluoromethyl)phenylethynyl-N-(2-hexanoylaminosulfonylphenyl)benzamide], the melting point was 194 to 196 °C. Work on `CC(=O)CCCC(=O)NS(=O)(=O)c1ccccc1NC(=O)c1ccc(C#Cc2cccc(C(F)(F)F)c2)cc1` [Example 2, 4-(3-Trifluoromethyl)phenylethynyl-N-(2-(5-ketohexanoylamino)-sulfonylphenyl)benzamide] yielded a melting point of 169 to 171 °C. Compound `CCCOCC(=O)NS(=O)(=O)c1ccccc1NC(=O)c1ccc(C#Cc2cccc(C(F)(F)F)c2)cc1` [Example 3, 4-(3-Trifluoromethyl)phenylethynyl-N-(2-(2-propyloxyacetylamino)sulfonylphenyl)benzamide] has a melting point of 175 to 177 °C. Work on `CCCCCC(=O)NS(=O)(=O)c1ccccc1NC(=O)c1ccc(C#Cc2ccc(C(F)(F)F)cc2)cc1` [Example 4, 4-(4-Trifluoromethyl)phenylethynyl-N-(2-hexanoylaminosulfonylphenyl)benzamide] yielded a melting point of 210 to 212 °C. With `CCCCCC(=O)NS(=O)(=O)c1ccccc1NC(=O)c1ccc(C#Cc2ccc(OC(F)(F)F)cc2)cc1` [Example 5, 4-(4-Trifluoromethoxy)phenylethynyl-N-(2-hexanoylaminosulfonylphenyl)benzamide] the melting point was 197 to 199 °C. With `CC(=O)CCCC(=O)NS(=O)(=O)c1ccccc1NC(=O)c1ccc(C#Cc2ccc(OC(F)(F)F)cc2)cc1` [Example 6, 4-(4-Trifluoromethoxy)phenylethynyl-N-(2-(5-ketohexanoylamino)-sulfonylphenyl)benzamide] the melting point was 204 to 205 °C. For `CCCCCC(=O)NS(=O)(=O)c1ccccc1NC(=O)c1ccc(C#Cc2ccc(F)cc2)cc1` [Example 7, 4-(4-Fluoro)phenylethynyl-N-(2-hexanoylaminosulfonylphenyl)benzamide], the melting point was 183 to 186 °C. `CC(=O)CCCC(=O)NS(=O)(=O)c1ccccc1NC(=O)c1ccc(C#Cc2ccc(F)cc2)cc1` [Example 8, 4-(4-Fluoro)phenylethynyl-N-(2-(5-ketohexanoylamino)sulfonylphenyl)benzamide] showed a melting point of 179 to 181 °C. `CCCCCC(=O)NS(=O)(=O)c1ccccc1NC(=O)c1ccc(C#Cc2cccc(F)c2)cc1` [Example 9, 4-(3-Fluoro)phenylethynyl-N-(2-hexanoylaminosulfonylphenyl)benzamide] showed a melting point of 183 to 186 °C.

Source: patent publication US6812252B2, “Acylsulfonamide derivatives” (Ajinomoto Co., Inc., priority 2000, dated 2004)
